# Values of other authors in PubChem BioAssay AID1259409 (Chemical Carcinogenesis Research Information System (CCRIS), 2018).
# Test system: rodent chemically induced tumor inhibition, incidence and multiplicity
# Experiment: CCRIS tumor inhibitor studies
structure (smiles),measurement,setting,value
COc1cc(/C=C/C(=O)CC(=O)/C=C/c2ccc(O)c(OC)c2)ccc1O,"tumour outcome (control, treated, inhibition, significance)","Carcinogen: 7,12-DIMETHYLBENZ[A]ANTHRACENE, 57-97-6, Dose [Inhibitor]: 10 UMOL IN MINERAL OIL APPLIED TO BUCCAL POUCH 3/WK BEGINNING 2 D AFTER LAST CARCINOGEN DOSE (STUDY DURATION: 24 WK), Route [Inhibitor]: MUCOUS MEMBRANE, Species: HAMSTER, Strain/Sex: SYRIAN/MALE, Target Tissue: Type of Lesion: BUCCAL POUCH: PAPILLOMA, Dose [Carcinogen]: 0.5% IN MINERAL OIL APPLIED TO BUCCAL POUCH 3'/WK FOR 6 WK, Promoter: NONE USED","21/26 (80.7%), 20/26 (76.9%), 4.71%, not significant"
same,"tumour outcome (control, treated, inhibition, significance)","Carcinogen: 7,12-DIMETHYLBENZ[A]ANTHRACENE, 57-97-6, Dose [Inhibitor]: 10 UMOL IN MINERAL OIL APPLIED TO BUCCAL POUCH 3/WK BEGINNING 2 D AFTER LAST CARCINOGEN DOSE (STUDY DURATION: 24 WK), Route [Inhibitor]: MUCOUS MEMBRANE, Species: HAMSTER, Strain/Sex: SYRIAN/MALE, Target Tissue: Type of Lesion: BUCCAL POUCH: SQUAMOUS CELL CARCINOMA, Dose [Carcinogen]: 0.5% IN MINERAL OIL APPLIED TO BUCCAL POUCH 3'/WK FOR 6 WK, Promoter: NONE USED","20/26 (76.9%), 13/26 (50%), 35%, p< 0.05"
same,"tumour outcome (control, treated, inhibition, significance)","Carcinogen: 7,12-DIMETHYLBENZ[A]ANTHRACENE, 57-97-6, Dose [Inhibitor]: 10 UMOL IN MINERAL OIL APPLIED TO BUCCAL POUCH 3/WK BEGINNING 2 D AFTER LAST CARCINOGEN DOSE (STUDY DURATION: 24 WK), Route [Inhibitor]: MUCOUS MEMBRANE, Species: HAMSTER, Strain/Sex: SYRIAN/MALE, Target Tissue: Type of Lesion: BUCCAL POUCH: TUMOR, Dose [Carcinogen]: 0.5% IN MINERAL OIL APPLIED TO BUCCAL POUCH 3'/WK FOR 6 WK, Promoter: NONE USED","24/26 (92.3%), 20/26 (76.9%), 16.7%, not significant"
same,"tumour outcome (control, treated, inhibition, significance)","Carcinogen: 7,12-Dimethylbenzanthracene, 57-97-6, Dose [Inhibitor]: 1% as turmeric (equivalent to 0.05% curcumin) in diet, starting 15 d before carcinogen application to 12 wks after carci, Route [Inhibitor]: Diet, Species: Hamster, Strain/Sex: Syrian golden/Male, Target Tissue: Type of Lesion: Buccal (oral) tissues: Tumor, Dose [Carcinogen]: 0.5% in 0.1 ml oil 3 x wk for 12 wk, study duration 12 wk, Promoter: None","100%, 55%, 45% at 12 wks (from table)"
same,"tumour outcome (control, treated, inhibition, significance)","Carcinogen: AZOXYMETHANE, 25843-45-2, Dose [Inhibitor]: 0, 0.5% COMMERCIAL GRADE CURCUMIN IN DIET FOR 35 WK BEGINNING 2 WK PRIOR TO CARCINOGEN TREATMENT (STUDY DURATION: 35 WK), Route [Inhibitor]: ORAL, Species: MOUSE, Strain/Sex: CF-1/FEMALE, Target Tissue: Type of Lesion: COLON: ADENOCARCINOMA, Dose [Carcinogen]: 10 MG/KG BW IN 100 µL NORMAL SALINE 1/WK FOR 6 WK, Promoter: NONE USED","40%, 22%, 45%, not significant"
same,"tumour outcome (control, treated, inhibition, significance)","Carcinogen: AZOXYMETHANE, 25843-45-2, Dose [Inhibitor]: 0, 0.5% COMMERCIAL GRADE CURCUMIN IN DIET FOR 35 WK BEGINNING 2 WK PRIOR TO CARCINOGEN TREATMENT (STUDY DURATION: 35 WK), Route [Inhibitor]: ORAL, Species: MOUSE, Strain/Sex: CF-1/FEMALE, Target Tissue: Type of Lesion: COLON: ADENOMA, Dose [Carcinogen]: 10 MG/KG BW IN 100 µL NORMAL SALINE 1/WK FOR 6 WK, Promoter: NONE USED","93%, 69%, 26%, not significant"
same,"tumour outcome (control, treated, inhibition, significance)","Carcinogen: AZOXYMETHANE, 25843-45-2, Dose [Inhibitor]: 0, 2% COMMERCIAL GRADE CURCUMIN IN DIET FOR 9 WK BEGINNING 2 WK PRIOR TO CARCINOGEN TREATMENT (STUDY DURATION: 35 WK), Route [Inhibitor]: ORAL, Species: MOUSE, Strain/Sex: CF-1/FEMALE, Target Tissue: Type of Lesion: COLON: ADENOCARCINOMA, Dose [Carcinogen]: 10 MG/KG BW IN 100 µL NORMAL SALINE 1/WK FOR 6 WK, Promoter: NONE USED","40%, 9%, 78%, not significant"
same,"tumour outcome (control, treated, inhibition, significance)","Carcinogen: AZOXYMETHANE, 25843-45-2, Dose [Inhibitor]: 0, 2% COMMERCIAL GRADE CURCUMIN IN DIET FOR 9 WK BEGINNING 2 WK PRIOR TO CARCINOGEN TREATMENT (STUDY DURATION: 35 WK), Route [Inhibitor]: ORAL, Species: MOUSE, Strain/Sex: CF-1/FEMALE, Target Tissue: Type of Lesion: COLON: ADENOMA, Dose [Carcinogen]: 10 MG/KG BW IN 100 µL NORMAL SALINE 1/WK FOR 6 WK, Promoter: NONE USED","93%, 61%, 34%, not significant"
same,"tumour outcome (control, treated, inhibition, significance)","Carcinogen: AZOXYMETHANE, 25843-45-2, Dose [Inhibitor]: 0, 2% COMMERCIAL GRADE CURCUMIN IN DIET FOR 26 WK BEGINNING 1 WK POST CARCINOGEN TREATMENT (STUDY DURATION: 35 WK), Route [Inhibitor]: ORAL, Species: MOUSE, Strain/Sex: CF-1/FEMALE, Target Tissue: Type of Lesion: COLON: ADENOCARCINOMA, Dose [Carcinogen]: 10 MG/KG BW IN 100 µL NORMAL SALINE 1/WK FOR 6 WK, Promoter: NONE USED","40%, 24%, 40%, not significant"
same,"tumour outcome (control, treated, inhibition, significance)","Carcinogen: AZOXYMETHANE, 25843-45-2, Dose [Inhibitor]: 0, 2% COMMERCIAL GRADE CURCUMIN IN DIET FOR 26 WK BEGINNING 1 WK POST CARCINOGEN TREATMENT (STUDY DURATION: 35 WK), Route [Inhibitor]: ORAL, Species: MOUSE, Strain/Sex: CF-1/FEMALE, Target Tissue: Type of Lesion: COLON: ADENOMA, Dose [Carcinogen]: 10 MG/KG BW IN 100 µL NORMAL SALINE 1/WK FOR 6 WK, Promoter: NONE USED","93%, 85%, 9%, not significant"
same,"tumour outcome (control, treated, inhibition, significance)","Carcinogen: AZOXYMETHANE, 25843-45-2, Dose [Inhibitor]: 0, 2% COMMERCIAL GRADE CURCUMIN IN DIET FOR 35 WK BEGINNING 2 WK PRIOR TO CARCINOGEN TREATMENT (STUDY DURATION: 35 WK), Route [Inhibitor]: ORAL, Species: MOUSE, Strain/Sex: CF-1/FEMALE, Target Tissue: Type of Lesion: COLON: ADENOCARCINOMA, Dose [Carcinogen]: 10 MG/KG BW IN 100 µL NORMAL SALINE 1/WK FOR 6 WK, Promoter: NONE USED","40%, 0%, 100%, not significant"
same,"tumour outcome (control, treated, inhibition, significance)","Carcinogen: AZOXYMETHANE, 25843-45-2, Dose [Inhibitor]: 0, 2% COMMERCIAL GRADE CURCUMIN IN DIET FOR 35 WK BEGINNING 2 WK PRIOR TO CARCINOGEN TREATMENT (STUDY DURATION: 35 WK), Route [Inhibitor]: ORAL, Species: MOUSE, Strain/Sex: CF-1/FEMALE, Target Tissue: Type of Lesion: COLON: ADENOMA, Dose [Carcinogen]: 10 MG/KG BW IN 100 µL NORMAL SALINE 1/WK FOR 6 WK, Promoter: NONE USED","93%, 68%, 27%, not significant"
same,"tumour outcome (control, treated, inhibition, significance)","Carcinogen: AZOXYMETHANE, 25843-45-2, Dose [Inhibitor]: 0, 2% PURE CURCUMIN IN DIET FOR 35 WK BEGINNING 2 WK PRIOR TO CARCINOGEN TREATMENT (STUDY DURATION: 35 WK), Route [Inhibitor]: ORAL, Species: MOUSE, Strain/Sex: CF-1/FEMALE, Target Tissue: Type of Lesion: COLON: ADENOCARCINOMA, Dose [Carcinogen]: 10 MG/KG BW IN 100 µL NORMAL SALINE 1/WK FOR 6 WK, Promoter: NONE USED","40%, 14%, 65%, not significant"
same,"tumour outcome (control, treated, inhibition, significance)","Carcinogen: AZOXYMETHANE, 25843-45-2, Dose [Inhibitor]: 0, 2% PURE CURCUMIN IN DIET FOR 35 WK BEGINNING 2 WK PRIOR TO CARCINOGEN TREATMENT (STUDY DURATION: 35 WK), Route [Inhibitor]: ORAL, Species: MOUSE, Strain/Sex: CF-1/FEMALE, Target Tissue: Type of Lesion: COLON: ADENOMA, Dose [Carcinogen]: 10 MG/KG BW IN 100 µL NORMAL SALINE 1/WK FOR 6 WK, Promoter: NONE USED","93%, 62%, 33%, not significant"
